Data: US11440913B2, “Aminoimidazopyridazines as kinase inhibitors” (BRISTOL-MYERS SQUIBB COMPANY, priority 2017, dated 2022)
Structures can show the parent of a compound that is named as a salt. Where two headings read alike, the source gives them in different places.

What was measured:
[1] = molecular target: His-GST-TVMV-hRIPK1(1-324) (Homo sapiens (Human), UniProt Q13546); test: RIPK1 HTRF Binding Assay; details: HTRF binding, 1 h at rt; read-out: RIPK1 (IC50)
Procedure: A solution was prepared containing 0.2 nM Anti GST-Tb (Cisbio, 61GSTTLB), 90.6 nM probe and 1 nM His-GST-TVMV-hRIPK1(1-324) in FRET Buffer (20 mM HEPES, 10 mM MgCl2, 0.015% Brij-35, 4 mM DTT, 0.05 mg/mL BSA). Using Formulatrix Tempest, the detection antibody/enzyme/probe solution ([…]) was dispensed into wells of a 1536 plate (Black Low Binding Polystyrene 1536 Plate (Corning, 3724)) containing 10 nL of compounds of interest at appropriate concentration in DMSO. The plate was incubated at rt for 1 h. FRET was measured using the EnVision plate reader (Excitation: 340 nm, Emission: 520 nm/[…]). Total signal (0% inhibition) was calculated from wells containing 10 nL DMSO only.
The coding region of human RIPK1(1-324) flanked by NdeI site at 5′ end and stop codon TGA and XhoI site at 3′ end was codon optimized and gene synthesized at GenScript USA Inc. (Piscataway, N.J.) and subcloned into a modified pFastBacl vector (Invitrogen, Carlsbad, Calif.) with N-terminal His-GST-TVMV tag, to generate His-GST-TVMV-hRIPK1(1-324)-pFB. The fidelity of the synthetic fragment was confirmed by sequencing.

[2] = system: MLKL phosphorylation in HT29-L23 human colorectal adenocarcinoma cells; test: MLKL Phosphorylation High-Content Assay; type: cell-based; details: necroptosis induced with TNFα, SMAC mimetic and Z-VAD, 6 h, read-out: pMLKL (IC50)
Procedure: MLKL Phosphorylation High-Content Assay
HT29-L23 human colorectal adenocarcinoma cells were maintained in RPMI 1640 medium containing 10% heat-inactivated FBS, 1% Pennicilin-Streptomycin and 10 mM HEPES. Cells were seeded at 2,000 cells/well in 384 w tissue culture-treated microplates (Greiner #781090-3B) and incubated at 37° C. (5% CO2/95% O2) for two days. On the day of assay, the cells were treated with test compounds at final concentrations of 6.25 to 0.106 μM for 30 min at 37° C. (5% CO2/95% O2). Necroptopsis was induced using a mixture of human TNFα (35 ng/mL) (Peprotech #300-01A), SMAC mimetic (from US 2015/0322111 A1) (700 nM) and Z-VAD (140 nM) (BD pharmingen #51-6936). Following six hours incubation at 37° C. (5% CO2/95% O2), the cells were fixed with 4% formaldedye (ACROS 11969-0010) for 15 min at room temperature and then permeabilized with phoshpate buffered saline (PBS) containing 0.2% Triton-X-100 for 10 min. MLKL phosporylation was detected using anti-MLKL (phospho S358) antibody (Abcam # ab187091) (1:1000 dilution in Blocking Buffer [PBS supplemented with 0.1% BSA]) with overnight incubation at 4° C. After washing three times in PBS, goat anti-rabbit Alexa-488 (1:1000 dilution) (Life Technologies, A11008) and Hoechst 33342 (Life Technologies, H3570) (1:2000 dilution) in Blocking Buffer were added for 1 h at room temperature. Following another three cycles of washes in PBS, the microplates were sealed, and cellular images were acquired in the Cellomics ArrayScan VTI high-content imager equipped with an X1 camera. Fluorescent images were taken using a 10× objective and the 386-23 BGRFRN_BGRFRN and 485-20 BGRFRN_BGRFRN filter sets, for nuclei and MLKL phosphorylation, respectively. The image sets were analyzed using the Compartmental Analysis Bioapplication software (Cellomics). The level of MLKL phosphorylation was quantified as MEAN_CircRingAvgIntenRatio. […] The IC50 value was defined as the concentration of compound that produces 50% of the maximal inhibition. The data were fitted using the 4-parameter logistic equation to calculate the IC50 and Ymax values.

His-GST-TVMV-hRIPK1(1-324), sequence (Q13546 1-324): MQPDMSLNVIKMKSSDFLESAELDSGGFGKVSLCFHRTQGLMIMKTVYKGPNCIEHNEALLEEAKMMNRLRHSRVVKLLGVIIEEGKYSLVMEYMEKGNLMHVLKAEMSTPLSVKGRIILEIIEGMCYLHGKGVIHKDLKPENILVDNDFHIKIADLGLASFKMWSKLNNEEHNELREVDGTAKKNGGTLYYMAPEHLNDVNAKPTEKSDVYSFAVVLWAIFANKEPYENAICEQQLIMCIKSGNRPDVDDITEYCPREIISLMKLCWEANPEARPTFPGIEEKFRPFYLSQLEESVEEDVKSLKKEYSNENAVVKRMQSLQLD

| Compound | IC50 [1] [nM] | IC50 [2] [nM] | IC50 ([2]; Homo sapiens) [nM] |
| --- | --- | --- | --- |
| 5-{2- acetamidoimidazo [1,2-b]pyridazin- 6-yl}-N-[(1R)- 1-[2-fluoro-5- (trifluoromethyl) phenyl](2,2,2-Â^2Hâ,f) ethyl]-2 methylbenzamide [Example 425] | > 5000 | 327 | – |
| CC(=O)Nc1cn2nc(-c3ccc(Cl)c(C(=O)NCc4cc(F)ccc4C(=O)N4CCC(F)(F)C4)c3)ccc2n1 [Example 387, 2-chloro-N-{[2-(3,3-difluoropyrrolidine-1-carbonyl)-5-fluorophenyl]methyl}-5-{2-acetamidoimidazo [1,2-b]pyridazin-6-yl}benzamide] | 8 | – | 5 |
| CC(=O)Nc1cn2nc(-c3cnc(C)c(C(=O)Nc4cn(Cc5ccc(Cl)cc5)cn4)c3)ccc2n1 [Example 349, N-{1-[(4-chlorophenyl)methyl]-1H-imidazol-4-yl}-5-{2-acetamidoimidazo[1,2-b]pyridazin-6-yl}-2-methylpyridine-3-carboxamide] | 51 | – | 424 |
| CC(=O)Nc1cn2nc(-c3ccc(C)c(C(=O)NCc4cc(OC(F)(F)F)ccc4F)c3)ccc2n1 [Example 394, 5-{2-acetamidoimidazo [1,2-b]pyridazin-6-yl}-N-{[2-fluoro-5-(trifluoromethoxy)phenyl]methyl}-2-methylbenzamide] | 3 | – | 3 |
| COc1nc(C)c(-c2ccc3nc(NC(C)=O)cn3n2)cc1C(=O)NCc1cc(F)c(F)cc1OCC1CC1 [Example 284, N-{[2-(cyclopropylmethoxy)-4,5-difluorophenyl]methyl}-5-{2-acetamidoimidazo[1,2-b]pyridazin-6-yl}-2-methoxy-6-methylpyridine-3-carboxamide] | 5 | – | 5 |
| COc1ccc(-c2ccc3nc(NC(C)=O)cn3n2)c(F)c1C(=O)NCc1cc(F)ccc1C(=O)N1CCC(F)(F)C1 [Example 376] | 9 | – | 9 |
| COc1nc(C)c(-c2ccc3nc(NC(C)=O)cn3n2)cc1C(=O)NCc1ccccc1OC(C)C1CCCC1 (stereo not drawn) [Example 303, N-{[2-(1-cyclopentylethoxy)phenyl]methyl}-5-{2-acetamidoimidazo[1,2-b]pyridazin-6-yl}-2-methoxy-6-methylpyridine-3-carboxamide] | 22 | 43 | – |
| CC(=O)Nc1cn2nc(-c3cnc(C)c(C(=O)NCC(C)(O)Cc4ccc(F)cc4)c3)ccc2n1 (stereo not drawn) [Example 356, 5-{2-acetamidoimidazo[1,2-b]pyridazin-6-yl}-N-[3-(4-fluorophenyl)-2-hydroxy-2-methylpropyl]-2-methylpyridine-3-carboxamide] | 150 | – | 485 |
| COc1ncc(-c2ccc3nc(NC(C)=O)cn3n2)cc1C(=O)NC(C)c1cc(F)cc(F)c1OCC1CC1 (stereo not drawn) [Example 133, N-{1-[2-(cyclopropylmethoxy)-3,5-difluorophenyl]ethyl}-5-{2-acetamidoimidazo[1,2-b]pyridazin-6-yl}-2-methoxypyridine-3-carboxamide] | 23 | 8 | – |
| CC(=O)Nc1cn2nc(-c3cnc(Cl)c(C(=O)NCc4cc(F)cc(F)c4OC(C)C4CCC4)c3)ccc2n1 (stereo not drawn) [Example 273, 2-chloro-N-{[2-(1-cyclobutylethoxy)-3,5-difluorophenyl]methyl}-5-{2-acetamidoimidazo[1,2-b]pyridazin-6-yl}pyridine-3-carboxamide, TFA] | 4 | – | 43 |
| COc1ncc(-c2ccc3nc(NC(C)=O)cn3n2)cc1C(=O)NCc1cc(OC(F)(F)F)ccc1F [Example 154, 5-{2-acetamidoimidazo[1,2-b]pyridazin-6-yl}-N-{[2-fluoro-5-(trifluoromethoxy)phenyl]methyl}-2-methoxypyridine-3-carboxamide] | 13 | – | 15 |
| Cc1nc(C)c(-c2ccc3nc(NC(=O)CO)cn3n2)cc1C(=O)N[C@H](C)c1cc(OC(F)(F)F)ccc1F [Example 95, N-[(1R)-1-[2-fluoro-5-(trifluoromethoxy)phenyl]ethyl]-5-[2-(2-hydroxyacet-amido)imidazo[1,2-b]pyridazin-6-yl]-2,6-dimethylpyridine-3-carboxamide] | 30 | – | 68 |
| CC(=O)Nc1cn2nc(-c3cnc(C)c(C(=O)NCc4cc(OC(F)(F)F)ccc4F)c3)ccc2n1 [Example 213, 5-{2-acetamidoimidazo[1,2-b]pyridazin-6-yl}-N-{[2-fluoro-5-(trifluoromethoxy)phenyl]methyl}-2-methylpyridine-3-carboxamide] | 7 | – | 6 |
| COc1nc(C)c(-c2ccc3nc(NC(C)=O)cn3n2)cc1C(=O)NCc1cccc(OCC2CC2)c1 [Example 309, N-{[3-(cyclopropylmethoxy)phenyl]methyl}-5-{2-acetamidoimidazo[1,2-b]pyridazin-6-yl}-2-methoxy-6-methylpyridine-3-carboxamide] | 19 | – | 46 |
| [2H]C([2H])(Oc1c(F)cc(F)cc1CNC(=O)c1cc(-c2ccc3nc(NC(C)=O)c(C)n3n2)cnc1OC)C1CC1 [Example 259, N-({2-[cyclopropyl(deutero)methoxy]-3,5-difluorophenyl}methyl)-5-{2-acetamido-3-methylimidazo[1,2-b]pyridazin-6-yl}-2-methoxypyridine-3-carboxamide] | 3 | – | 13 |
| COc1ncc(-c2ccc3nc(NC(C)=O)cn3n2)cc1C(=O)NCCC(C)c1ccccc1 (stereo not drawn) [Example 25, 5-{2-acetamidoimidazo[1,2-b]pyridazin-6-yl}-2-methoxy-N-(3-phenylbutyl)pyridine-3-carboxamide] | 2 | – | 9 |
| CC(=O)Nc1cn2nc(-c3cc(C(=O)NCc4cc(F)cc(F)c4OC4COC4)c(C)nc3C)ccc2n1 [Example 77, N-{[3,5-difluoro-2-(oxetan-3-yloxy)phenyl]methyl}-5-{2-acetamidoimidazo[1,2-b]pyridazin-6-yl}-2,6-dimethylpyridine-3-carboxamide] | 17 | – | 265 |
| COc1ncc(-c2ccc3nc(NC(C)=O)cn3n2)cc1C(=O)NCCC(O)c1ccc(Cl)cc1 (stereo not drawn) [Example 23, N-[3-(4-chlorophenyl)-3-hydroxypropyl]-5-{2-acetamidoimidazo[1,2-b]pyridazin-6-yl}-2-methoxypyridine-3-carboxamide] | 124 | – | 127 |
| [2H]C([2H])([2H])Oc1nc(C)c(-c2ccc3nc(NC(C)=O)cn3n2)cc1C(=O)NCc1cccc(F)c1OC1C[C@@H](C)O[C@@H](C)C1 (stereo partly drawn) [Example 168, N-[(2-{[(2R,6S)-2,6-dimethyloxan-4-yl]oxy}-3-fluorophenyl)methyl]-5-{2-acetamidoimidazo[1,2-b]pyridazin-6-yl}-2-(deutero)methoxy-6-methylpyridine-3-carboxamide] | 21 | – | 67 |
| CC(=O)Nc1cn2nc(-c3cnc(C)c(C(=O)NCc4cc(F)cc(F)c4OC4CCOCC4)c3)ccc2n1 [Example 201, N-{[3,5-difluoro-2-(oxan-4-yloxy)phenyl]methyl}-5-{2-acetamidoimidazo[1,2-b]pyridazin-6-yl}-2-methylpyridine-3-carboxamide] | 6 | – | 10 |
| [2H]C([2H])(NC(=O)c1cnc(C)c(-c2ccc3nc(NC(C)=O)cn3n2)c1)c1cc(OC(F)(F)F)ccc1F [Example 230, 5-{2-acetamidoimidazo[1,2-b]pyridazin-6-yl}-N-{[2-fluoro-5-(trifluoromethoxy)phenyl](deutero)methy 1}-6-methylpyridine-3-carboxamide] | 19 | – | 90 |
